Test results published in patent US20130131321A1, “LIGANDS FOR ANTIBODY AND Fc-FUSION PROTEIN PURIFICATION BY AFFINITY CHROMATOGRAPHY” (GRAFFINITY PHARMACEUTICALS GMBH, priority 2010, published 2013).

How the values were obtained:
Bevacizumab [1] = target: T1, Bevacizumab (Homo sapiens, UniProt P01857); experiment: Microtiter plate chromatography of resins, Bevacizumab whole IgG (bound, yield, selectivity); format: binding, humanized
T1 construct: fused on or other part: humanised anti-VEGF-A VH domain N-terminal of the gamma-1 constant region (engineered, no UniProt entry)

Tocilizumab = experiment: Microtiter plate chromatography of resins, Tocilizumab (bound, yield); format: binding, humanized
Palivizumab = experiment: Microtiter plate chromatography of resins, Palivizumab (bound, yield); format: binding, humanized
[2] = tested on: human poly-IgG (h-poly-IgG); experiment: Microtiter plate chromatography of resins, human poly-IgG (bound, yield); format: binding
Bevacizumab Fab fragment = experiment: Microtiter plate chromatography of resins, Bevacizumab Fab fragment (bound); format: binding, humanized; settings: for Bevacizumab Fab Bound (%): Bevacizumab Fab fragment
Protocol: (§1) Resins were assessed in packed mode by microtiter plate chromatography. For each column, approximately 30 μl of resin were transferred to a 384-well filter plate and sealed with appropriate top frits.
(§2) Columns were equilibrated with 6.7 column volumes (cv) of phosphate buffered saline (0.15 M NaCl, 20 mM sodium phosphate, pH 7.3; PBS) prior to injection. Either 3.3 cv of whole IgGs dissolved at 0.75 mg ml^−1, Fab or Fc fragments dissolved at 0.25 mg ml^−1 (all three in PBS) or host cell proteins (HCP) were injected onto columns. Antibody fragments of Bevacizumab (Fab and Fc) were prepared by cleavage of whole IgG with papain protease (3) according to the protocol of the manufacturer. […] Volumes transferred were spun through columns at 50 g for 1-2 min. During injection of samples, acceleration was reduced to 10 g and centrifugation time increased to 5-10 min. Effluent fractions were collected in 384-well plates and concentrations of protein analyzed by Bradford assay. Protein masses mi, mft and me (see below) were calculated as the product of fraction volume and measured protein concentration.
(§3) The fraction of ‘bound’ protein was calculated as the difference between the total mass of protein injected mi and the mass of protein detected in the flowthrough mft, divided by the total mass of protein injected.
(§4) the fraction of ‘bound’ protein and the ‘yield’ of protein were calculated for each resin based on data for whole IgG-antibodies. In the case of Bevacizumab fragments and host cell proteins, only the fraction of ‘bound’ protein is given. Selectivity of resins was calculated from data for Bevacizumab Whole IgG and host cell proteins. Due to limited experimental precision, selectivity was truncated beyond values of 10.

Bevacizumab Fc fragment = experiment: Microtiter plate chromatography of resins, Bevacizumab Fc fragment (bound); format: binding, humanized; settings: for Bevacizumab Fc Bound (%): Bevacizumab Fc fragment
Protocol: as §1, §2, §3, §4

host cell proteins (HCP) [3] = experiment: Microtiter plate chromatography of resins, host cell proteins (bound); format: binding, CHO; settings: host cell proteins
Bevacizumab [4] = target: T1, Bevacizumab; experiment: Langmuir isotherms by batch adsorption; format: binding, humanized; settings: Bevacizumab in PBS pH 7.3, 25° C., at least 3 h; for Kd: read-out: Kd (dissociation constant, Langmuir isotherm)
Protocol: Experiments were performed with Bevacizumab as antibody. Parameters of Langmuir isotherms for purified antibody were determined by batch adsorption experiments in 96-well microtiter plates. In each well, 10 μl of sorbent slurry (50% v/v) were mixed with 100 μl of protein solution. Initial concentrations varied from 0.05-5 mg ml^−1 in phosphate-buffered saline (0.15 M NaCl, 20 mM phosphate buffer, pH 7.3; PBS). Reactions were agitated vigorously at 25° C. for at least 3 h. Afterwards, antibody concentration in the supernatents were measured by Bradford assay.
Parameters of Langmuir isotherms, i.e. dissociation constants Kd and maximum capacities qm, were determined from the measured concentrations in supernatants. Parameters were estimated by numerical fitting of the model equation derived by Chase (4).

host cell proteins (HCP) [5] = experiment: Microtiter plate chromatography of resins, host cell proteins (bound); format: binding, CHO; settings: estimate predicted on the basis of close analogs L49 and L50
[6] = fraction of whole IgG Bevacizumab bound to resin
[7] = mass of whole IgG Bevacizumab eluted / mass injected
[8] = estimate predicted on the basis of close analogs L49 and L50

COc1ccc(NC(=O)c2cncc(-c3ccco3)c2)cc1C(=O)NCCCN [Ligand L13, 5-[3-(2-Furyl)pyridin-5-yl]carboxamido-2-methoxybenzoic acid N-(3-aminopropyl)amide]
Bevacizumab IgG Bound (%) (Bevacizumab [1]; [6]): 100%
Bevacizumab IgG Yield (%) (Bevacizumab [1]; [7]): 94%
Tocilizumab Bound (%) (Tocilizumab): 91%
Tocilizumab Yield (%) (Tocilizumab): 79%
Palivizumab Bound (%) (Palivizumab): 65%
Palivizumab Yield (%) (Palivizumab): 58%
h-poly-IgG Bound (%) [2]: 76%
h-poly-IgG Yield (%) [2]: 75%
Bevacizumab Fab Bound (%) (Bevacizumab Fab fragment): 9%
Bevacizumab Fc Bound (%) (Bevacizumab Fc fragment): 64%
HCP Bound (%) (host cell proteins (HCP) [3]): 38%
qm (maximum capacity, Langmuir isotherm) (Bevacizumab [4]): 37 mg per ml resin
Kd (Bevacizumab [4]): 411 µM

COc1ccc(NC(=O)c2cncc(-c3ccoc3)c2)cc1C(=O)NCCCN [Ligand L22, 5-[3-(3-Furyl)pyridin-5-yl]carboxamido-2-methoxybenzoic acid N-(3-aminopropyl)amide]
Bevacizumab IgG Bound (%) (Bevacizumab [1]; [6]): 100%
Bevacizumab IgG Yield (%) (Bevacizumab [1]; [7]): 92%
Tocilizumab Bound (%) (Tocilizumab): 62%
Tocilizumab Yield (%) (Tocilizumab): 58%
Palivizumab Bound (%) (Palivizumab): 40%
Palivizumab Yield (%) (Palivizumab): 34%
h-poly-IgG Bound (%) [2]: 63%
h-poly-IgG Yield (%) [2]: 58%
HCP Bound (%) (host cell proteins (HCP) [3]): 33%
qm (maximum capacity, Langmuir isotherm) (Bevacizumab [4]): 29 mg per ml resin
Kd (Bevacizumab [4]): 373 µM

COc1ccc(NC(=O)c2cncc(C3CC3)c2)cc1C(=O)NCCCN [Ligand L23, 5-(3-Cyclopropylpyridin-5-yl)carboxamido-2-methoxybenzoic acid N-(3-aminopropyl)amide]
Bevacizumab IgG Bound (%) (Bevacizumab [1]; [6]): 100%
Bevacizumab IgG Yield (%) (Bevacizumab [1]; [7]): 98%
Tocilizumab Bound (%) (Tocilizumab): 86%
Tocilizumab Yield (%) (Tocilizumab): 85%
Palivizumab Bound (%) (Palivizumab): 61%
Palivizumab Yield (%) (Palivizumab): 57%
h-poly-IgG Bound (%) [2]: 75%
h-poly-IgG Yield (%) [2]: 74%
Bevacizumab Fab Bound (%) (Bevacizumab Fab fragment): 12%
Bevacizumab Fc Bound (%) (Bevacizumab Fc fragment): 67%
HCP Bound (%) (host cell proteins (HCP) [3]): 32%
qm (maximum capacity, Langmuir isotherm) (Bevacizumab [4]): 33 mg per ml resin

C#Cc1cncc(C(=O)Nc2ccc(OC)c(C(=O)NCCCN)c2)c1 [Ligand L24, 5-(3-Ethynylpyridin-5-yl)carboxamido-2-methoxybenzoic acid N-(3-aminopropyl)amide]
Bevacizumab IgG Bound (%) (Bevacizumab [1]; [6]): 100%
Bevacizumab IgG Yield (%) (Bevacizumab [1]; [7]): 97%
Tocilizumab Bound (%) (Tocilizumab): 41%
Tocilizumab Yield (%) (Tocilizumab): 40%
Palivizumab Bound (%) (Palivizumab): 24%
Palivizumab Yield (%) (Palivizumab): 21%
h-poly-IgG Bound (%) [2]: 45%
h-poly-IgG Yield (%) [2]: 47%
HCP Bound (%) (host cell proteins (HCP) [3]): 29%
qm (maximum capacity, Langmuir isotherm) (Bevacizumab [4]): 33 mg per ml resin
Kd (Bevacizumab [4]): 596 µM

COc1ccc(NC(=O)c2nn(C)c3ccccc23)cc1C(=O)NCCCN [Ligand L27, 2-Methoxy-5-(1-methylindazol-3-yl)carboxamidobenzoic acid N-(3-aminopropyl)amide]
Bevacizumab IgG Bound (%) (Bevacizumab [1]; [6]): 100%
Bevacizumab IgG Yield (%) (Bevacizumab [1]; [7]): 94%
Tocilizumab Bound (%) (Tocilizumab): 100%
Tocilizumab Yield (%) (Tocilizumab): 104%
Palivizumab Bound (%) (Palivizumab): 100%
Palivizumab Yield (%) (Palivizumab): 94%
h-poly-IgG Bound (%) [2]: 98%
h-poly-IgG Yield (%) [2]: 89%
Bevacizumab Fab Bound (%) (Bevacizumab Fab fragment): 6%
binding of Bevacizumab Fab-fragment (Bevacizumab Fab fragment; Fab 0.25 mg ml^-1 in PBS): not the Fab-fragment
Bevacizumab Fc Bound (%) (Bevacizumab Fc fragment): 96%
binding of Bevacizumab Fc-fragment (Bevacizumab Fc fragment; Fc 0.25 mg ml^-1 in PBS): bound the Fc-fragment
HCP Bound (%) (host cell proteins (HCP) [3]): 35%
qm (maximum capacity, Langmuir isotherm) (Bevacizumab [4]): 33 mg per ml resin

COc1ccc(NC(=O)c2cn3ccsc3n2)cc1C(=O)NCCOCC(=O)NCCCC[C@H](NC(=O)COCCNC(=O)c1cc(NC(=O)c2cn3ccsc3n2)ccc1OC)C(=O)NCCCN [Ligand L53, (S)-2,6-Bis{5-[5-(Imidazo[2,1-b]thiazol-6-ylcarboxamido)-2-methoxyphenylcarboxamido]-3-oxapentanoylamido}hexanoic acid (3-amino-1-propyl)amide]
Bevacizumab IgG Bound (%) (Bevacizumab [1]; [8]): >95%
Bevacizumab IgG Yield (%) (Bevacizumab [1]; [8]): >85%
Tocilizumab Bound (%) (Tocilizumab): >90%
Tocilizumab Yield (%) (Tocilizumab): >90%
HCP Bound (%) (host cell proteins (HCP) [5]): <20%
